Literature values in patent US20110059177A1, “Cardioplegia Solution for Cardiac Surgery” (priority 2008, published 2011).

Key:
[1] = test system: common carotid artery IMT (intima-media thickness); details: patients with coronary artery disease, 6 months

Structure (SMILES)	common carotid artery IMT (intima-media thickness) [1]	markers of inflammation [1]	activity level relative to tetracycline (150 mg of minocycline vs 250 mg of tetracycline at 24-48 hours)	serum levels relative to most other tetracyclines (result of long half-life)
CCOC(=O)C1=C(C)NC(C)=C(C(=O)OCC)C1c1ccccc1/C=C/C(=O)OC(C)(C)C [Lacidipine]	significant reduction	decrease		
CN(C)c1ccc(O)c2c1C[C@H]1C[C@H]3[C@H](N(C)C)C(O)=C(C(N)=O)C(=O)[C@@]3(O)C(O)=C1C2=O [Minocycline]			16 times	2-4 times
